Reference: patent US20160264593A1 (priority 2013, published 2016)
Read-outs that look alike come from different tables or passages of the source.

Test: Pharmacokinetic study of 153 (and metabolite endothal) in SD rats, iv and po; plasma, liver, brain
Format: in vivo
Settings: for 153 plasma concentration (title) / Liver concentration: PO per title; for MRT last: read-out: MRT (0-t)
Method: The blood, liver and brain tissue samples were collected at predetermined times from rats. […] Compound were diluted shortly before use in 4% sodium bicarbonate for sterile injection (this is the standard pediatric solution of NaHCO3 with a pH of about 8.5).
Compound 153 was freshly prepared by diluting the drugs shortly before use in 4% sodium bicarbonate for sterile injection (this is the standard pediatric solution of NaHCO3 with a pH of about 8.5). The final concentrations of 153 solutions were 0.25 mg/mL. The 153 solutions were administered via iv or po route at dose volume of 5 ml/kg according to the latest body weight. Compound 157 was freshly prepared by diluting the drugs shortly before use in 4% sodium bicarbonate for sterile injection (this is the standard pediatric solution of NaHCO3 with a pH of about 8.5). The final concentrations of […] solutions were 0.3 mg/mL. The 157 solutions were administered via iv or po route at dose volume of 5 ml/kg according to the latest body weight.
Twelve (12) female SD rats per group were dosed by iv with 153 or 157. The rats were fasted overnight prior to dosing, with free access to water. Foods were withheld for 2 hours post-dose. Blood, liver and brain tissue samples in two animals each group were collected at each time point, within 10% of the scheduled time for each time point. Two extra animals were used for analytic method development.
Blood (>0.3 mL) were collected via aorta abdominalis in anaesthetic animals into tubes containing heparin at 15 min, 1, 2, 6, 10 and 24 hours after iv administration. Liver and brain tissues were collected immediately after animal death. The liver and brain tissues were excised and rinsed with cold saline to avoid blood residual. Upon collection, each sample was placed on ice and the blood samples were subsequently centrifuged (4° C., 11000 rpm, 5 min) to separate plasma. The obtained plasma, liver and brain tissue samples were stored at −70° C. until LC-MS/MS analysis.
Two (2) female SD rats per group were dosed by po with 153 or 157. The rats were fasted overnight prior to dosing, with free access to water. Foods were withheld for 2 hours post-dose. Blood samples (>0.3 mL) were collected via aorta abdominalis in anaesthetic animals into tubes containing heparin at 30 min, 1, 2, 6, 10 and 24 hours after po administration.
To each sample, 20 μL IS-D (for blank samples, 20 μL acetonitrile:water (1:1) was added) and 300 μl acetonitrile was added. The sample mixture was vortexed for approximately 3 min. After centrifugation at 10000 rpm for 5 min at 4° C., 100 μL of the upper layer was transferred to a new tube and added 200 μL 0.4% formic acid in water (pH 6.0). The mixture was vortexed for approximately 3 min before injected onto the LC/MS/MS system for analysis.
On the day of the assay, the frozen liver and brain samples were thawed unassisted at room temperature. An about 200 mg weighed sample of each thawed tissue was placed into a plastic tube with water (0.6 mL) to facilitate homogenization. Tissue processing was conducted using a homogenizer for approximately 1 min, 200 μl homogenate was transferred into a fresh Eppendorf tube. To each tube, 50 μL IS-D was added and mixed. Then 600 μl acetonitrile was added and the sample mixture was vortexed for approximately 3 min. After centrifugation at 10000 rpm for 5 min at 4° C., 400 μL of the upper layer was transferred to a new tube and evaporate the supernatant to dryness at 35° C. Reconstitute the residue with 200 μL of 0.4% formic acid in water (pH6.0), and vortex for 3 min, submit for LC-MS/MS analysis.
Frozen unknown plasma samples were completely thawed at room temperature and vortexed thoroughly. With a pipette, 50 μL of plasma was transferred into a 2.0 mL Eppendorf tube. 50 μL of 0.1N HCl and 800 μL ethyl acetate were added into each sample. The sample mixture was vortexed for approximately 3 min.

[1] = female, SD, rat, in vivo, iv, 1.25 mg/kg, 153 in plasma, IV 1.25 mg/kg, Mean
[2] = female, SD, rat, in vivo, iv, 1.25 mg/kg, 153 in plasma, IV 1.25 mg/kg, rat 1
[3] = female, SD, rat, in vivo, iv, 1.25 mg/kg, 153 in plasma, IV 1.25 mg/kg, rat 2

For `CCCOC(=O)C1C2CCC(O2)C1C(=O)N1CCN(C)CC1` (stereo not drawn) [Compound 153, 3-(4-Methylpiperazine-1-carbonyl)-7-oxa-bicyclo[2,2,1]heptane-2-carboxylic acid propyl ester], the F (153, PO 1.25 mg/kg vs IV 1.25 mg/kg, Mean) was 55.41%, the “conversion to endothal in the plasma (statement)” value (153 administered to rats) was “converted to endothal” and the Tmax (153 in plasma, IV 1.25 mg/kg, Mean) was 15 min. The Tmax (153 in plasma, IV 1.25 mg/kg, rat 2) was 15 min, the Tmax (153 in plasma, PO 1.25 mg/kg, rat 2) was 30 min and the “AUClast of 153 in brain” value (153 iv 1.25 mg/kg) was 39.4 ng·h/g. For the same compound, the “AUClast of 153 in liver” value (153 iv 1.25 mg/kg) was 500 ng·h/g, the “oral availability of 153 (statement)” value (153 po 1.25 mg/kg) was “orally available” and the AUC (Brain, 1.25 mg/kg IV, Mean) was 39.4 ng·h/mL. For the same compound, the “AUC0-∞” value (Brain, 1.25 mg/kg IV, Mean) was 39.35 ng·h/mL, the Tmax (Brain, 1.25 mg/kg IV, Mean) was 15 min and the AUC (Brain, 1.25 mg/kg IV, rat 1) was 39.2 ng·h/mL. For the same compound, the “AUC0-∞” value (Brain, 1.25 mg/kg IV, rat 1) was 39.2 ng·h/mL, the Tmax (Brain, 1.25 mg/kg IV, rat 1) was 15 min and the AUC (Brain, 1.25 mg/kg IV, rat 2) was 39.5 ng·h/mL. The “AUC0-∞” value (Brain, 1.25 mg/kg IV, rat 2) was 39.5 ng·h/mL, the Tmax (Brain, 1.25 mg/kg IV, rat 2) was 15 min and the AUC (Liver, 1.25 mg/kg IV, Mean) was 500 ng·h/mL. The “AUC0-∞” value (Liver, 1.25 mg/kg IV, Mean) was 500 ng·h/mL, the AUC (Liver, 1.25 mg/kg IV, rat 1) was 547 ng·h/mL and the “AUC0-∞” value (Liver, 1.25 mg/kg IV, rat 1) was 547 ng·h/mL. For the same compound, the Tmax (Liver, 1.25 mg/kg IV, rat 1) was 15 min, the AUC (Liver, 1.25 mg/kg IV, rat 2) was 453 ng·h/mL and the “AUC0-∞” value (Liver, 1.25 mg/kg IV, rat 2) was 453 ng·h/mL. The Tmax (Liver, 1.25 mg/kg IV, rat 2) was 15 min, the “153 plasma concentration (title) / Liver concentration” value (1.25 mg/kg, 6 hr, Rat 1) was “BLQ” and the “153 plasma concentration (title) / Liver concentration” value (1.25 mg/kg, 6 hr, Rat 2) was “BLQ”. The “153 plasma concentration (title) / Liver concentration” value (1.25 mg/kg, 10 hr, Rat 1) was “BLQ”, the Tmax (female, SD, in vivo, 153 in plasma, IV 1.25 mg/kg, rat 1, read-out: Tmax) was 15 min and the Tmax (female, SD, in vivo, 153 in plasma, PO 1.25 mg/kg, rat 1, read-out: Tmax) was 30 min. The AUC(0-inf) [1] was 296 ng·h/mL, the AUC (female, SD, rat, in vivo, iv, 1.25 mg/kg, 153 in plasma, IV 1.25 mg/kg, Mean, read-out: AUC) was 295 ng·h/mL and the Cmax (female, SD, rat, in vivo, iv, 1.25 mg/kg, 153 in plasma, IV 1.25 mg/kg, Mean, read-out: Cmax) was 557 ng/mL. For the same compound, the MRT last [1] was 39.4 min, the half-life (female, SD, rat, in vivo, iv, 1.25 mg/kg, 153 in plasma, IV 1.25 mg/kg, Mean, read-out: T1/2 (converted)) was 55.3 min and the AUC(0-inf) [2] was 303 ng·h/mL. The AUC (female, SD, rat, in vivo, iv, 1.25 mg/kg, 153 in plasma, IV 1.25 mg/kg, rat 1, read-out: AUC) was 303 ng·h/mL, the Cmax (female, SD, rat, in vivo, iv, 1.25 mg/kg, 153 in plasma, IV 1.25 mg/kg, rat 1, read-out: Cmax) was 563 ng/mL and the MRT last [2] was 40 min. For the same compound, the half-life (female, SD, rat, in vivo, iv, 1.25 mg/kg, 153 in plasma, IV 1.25 mg/kg, rat 1, read-out: T1/2 (converted)) was 54.4 min, the AUC(0-inf) [3] was 288 ng·h/mL and the AUC (female, SD, rat, in vivo, iv, 1.25 mg/kg, 153 in plasma, IV 1.25 mg/kg, rat 2, read-out: AUC) was 288 ng·h/mL. The Cmax (female, SD, rat, in vivo, iv, 1.25 mg/kg, 153 in plasma, IV 1.25 mg/kg, rat 2, read-out: Cmax) was 550 ng/mL, the MRT last [3] was 38.8 min and the half-life (female, SD, rat, in vivo, iv, 1.25 mg/kg, 153 in plasma, IV 1.25 mg/kg, rat 2, read-out: T1/2 (converted)) was 56 min. It also gave a half-life (female, SD, rat, in vivo, iv, 1.25 mg/kg, 153 iv 1.25 mg/kg, read-out: T1/2 of 153 in brain (converted)) of 35.8 min, a half-life (female, SD, rat, in vivo, iv, 1.25 mg/kg, 153 iv 1.25 mg/kg, read-out: T1/2 of 153 in liver (converted)) of 37.6 min and a half-life (female, SD, rat, in vivo, iv, 1.25 mg/kg, 153 iv 1.25 mg/kg, read-out: T1/2 of 153 in plasma (converted)) of 55.3 min. For the same compound, the Cmax (female, SD, rat, in vivo, iv, 1.25 mg/kg, 153 iv 1.25 mg/kg, read-out: mean Cmax of 153 in brain) was 42.7 ng/g, the Cmax (female, SD, rat, in vivo, iv, 1.25 mg/kg, 153 iv 1.25 mg/kg, read-out: mean Cmax of 153 in liver) was 762 ng/g and the Cmax (female, SD, rat, in vivo, iv, 1.25 mg/kg, 153 iv 1.25 mg/kg, read-out: mean Cmax of 153 in plasma) was 557 ng/mL. It also gave a Cmax (female, SD, rat, in vivo, iv, 1.25 mg/kg, Liver, 1.25 mg/kg IV, rat 1, read-out: Cmax) of 872 ng/g, an MRT last (female, SD, rat, in vivo, iv, 1.25 mg/kg, Liver, 1.25 mg/kg IV, rat 1) of 44.7 min and a half-life (female, SD, rat, in vivo, iv, 1.25 mg/kg, Liver, 1.25 mg/kg IV, rat 1, read-out: T1/2 (converted)) of 36.5 min. It also gave a Cmax (female, SD, rat, in vivo, iv, 1.25 mg/kg, Liver, 1.25 mg/kg IV, rat 2, read-out: Cmax) of 652 ng/g, an MRT last (female, SD, rat, in vivo, iv, 1.25 mg/kg, Liver, 1.25 mg/kg IV, rat 2) of 49.5 min and a concentration at 0.25 h (female, SD, rat, in vivo, iv, 1.25 mg/kg, iv 1.25 mg/kg, Mean, read-out: 153 brain concentration) of 42.7 ng/g. For the same compound, the concentration at 0.25 h (female, SD, rat, in vivo, iv, 1.25 mg/kg, iv 1.25 mg/kg, Mean, read-out: 153 liver concentration) was 762 ng/g, the concentration at 0.25 h (female, SD, rat, in vivo, iv, 1.25 mg/kg, iv 1.25 mg/kg, Mean, read-out: 153 plasma concentration) was 557 ng/mL and the concentration at 0.25 h (female, SD, rat, in vivo, iv, 1.25 mg/kg, iv 1.25 mg/kg, Rat 1, read-out: 153 brain concentration) was 45 ng/g. The concentration at 0.25 h (female, SD, rat, in vivo, iv, 1.25 mg/kg, iv 1.25 mg/kg, Rat 1, read-out: 153 liver concentration) was 872 ng/g, the concentration at 0.25 h (female, SD, rat, in vivo, iv, 1.25 mg/kg, iv 1.25 mg/kg, Rat 1, read-out: 153 plasma concentration) was 563 ng/mL and the concentration at 0.25 h (female, SD, rat, in vivo, iv, 1.25 mg/kg, iv 1.25 mg/kg, Rat 2, read-out: 153 brain concentration) was 40.3 ng/g. It also gave a concentration at 0.25 h (female, SD, rat, in vivo, iv, 1.25 mg/kg, iv 1.25 mg/kg, Rat 2, read-out: 153 liver concentration) of 652 ng/g, a concentration at 0.25 h (female, SD, rat, in vivo, iv, 1.25 mg/kg, iv 1.25 mg/kg, Rat 2, read-out: 153 plasma concentration) of 550 ng/mL and a concentration at 1 h (female, SD, rat, in vivo, iv, 1.25 mg/kg, iv 1.25 mg/kg, 1 hr, Mean, read-out: 153 brain concentration) of 14.1 ng/g.
